Results on two molecules are retold here after patent US20240174649A1, “CULLIN-RING E3 UBIQUITIN LIGASE 4 INHIBITOR COMPOUNDS AND METHODS OF THEIR USE” (ICAHN SCHOOL OF MEDICINE AT MOUNT SINAI, priority 2021, published 2024).

For test [1], the target named is T1, ROC1-CUL1 CTD (Homo sapiens (Human), UniProt Q13616). The test is described as follows: FRET K48 di-Ub synthesis assay. Format: biochemical. The settings on record: HTS screening conditions, read-out: inhibition of the reaction.
The target in test [2] is T1, ROC1-CUL1 CTD. Nature of the test: Ligand binding by MST. The following applies: Table 5, MST; read-out: E3 binding Kd. The protocol:
E3 ligase complex (˜2 nmol) was labeled with fluorescent dye using Monolith NT Protein Labeling Kit Red-NHS (Nanotemper) in the presence of 20 mM MES pH 6.0 and 150 mM NaCl. Excess dye was removed using the included gravity flow column and eluted in storage buffer containing 20 mM Tris-HCl, pH 7.4, 150 mM NaCl, and 10% glycerol. The fluorescent E3 complex (˜0.01-0.06 μM) was mixed with increasing amount of compound in a buffer (20 μl) that contains phosphate-buffered saline, 0.1% TWEEN-20 and 2% prionex. Following incubation at room temperature for 30 min, the reaction mixture loaded into premium coated capillaries and analyzed in the Monolith NT.115 machine (Nanotemper). Thermophoresis was recorded for each sample and binding curve was generated and Kd was calculated using the included software. For reactions where significant ligand specific fluorescence quenching occurred (verified by manufacturer's SDS Denaturation-test protocol), the initial fluorescence quenching data was used directly to calculate the binding curve and Kd.

For the next test, the target named is E3 CRL4^CRBN (Homo sapiens (Human), UniProt Q13619). The test is described as follows: Lenalidomide-dependent ubiquitination of CK1α by CRL4^CRBN. Type of test: biochemical. The settings on record: at 30 μM. The protocol:
To prepare Flag-CK1α as a substrate for ubiquitination experiments described in FIGS. 2A-E, the expression vector (purchased from Addgene) was introduced to HEK-293T cells by transfection using Lipofectamine RNAIMAX (ThermoFisher) according to manufacturer's protocols. Cell extracts were prepared and the concentration of Flag-CK1α was determined using immunoblot analysis with purified GST-CK1α (Sigma) as a standard. Typically, 50-100 μl of extracts was used to attach to ˜15 μl of M2 beads (Sigma) at 4° C. for 2 hours. Unbound materials were removed by washing (first three times with a washing buffer containing 50 mM Tris-HCl, pH8.0, 1% Triton X-100, 0.5M NaCl, and then twice with buffer A plus 50 mM NaCl) and the resulting beads were used in the ubiquitination assay (15 μl). The concentration of Flag-CK1α was determined to be ˜100 nM.
Immobilized, Flag-CK1α-containing beads were initially incubated with a reaction mixture (10 μl) containing 50 mM Tris-HCl (pH7.4), 0.5 mM DTT, 0.1 mg/ml of BSA, 5 mM MgCl2, 100 nM CRL4^CRBN, 1 μM Lenalidomide (Selleckchem), 1 μM Fluorescein-Ub, 100 nM E1, and 1 μM UbcH5c. ATP (20 mM) was added last to initiate the reaction. The reaction was incubated on a thermomixer (1,300 rpm; Eppendorf) at 37° C. for 5 min. The resulting beads were then added with a second reaction mixture (5 μl) containing 50 mM Tris-HCl (pH7.4), 0.5 mM DTT, 0.1 mg/ml of BSA, 5 mM MgCl2, 4 μM I-Ub-Q31C/K48R, and 1 μM Cdc34b, in the presence or absence of E3 inhibitors as specified. The reaction was incubated on a thermomixer at 37° C. for times as indicated. The concentrations of enzymes, Ubs, and compounds stated above were adjusted based on a final volume of 15 μl. The beads were then washed using conditions as described above. Materials eluted from the beads were separated by 4-20% SDS-PAGE followed by detection with fluorescence scanning (Typhoon 9500) or immunoblot using anti-CK1α antibody (Abcam). […]

The target in another test is ROC1-CUL1 (Homo sapiens (Human), UniProt Q13616). Nature of the test: Gel-based di-Ub synthesis. Type of test: biochemical. The procedure: For the experiment shown in FIG. 7 and FIGS. 8A-B, the di-Ub synthesis reaction was carried out by preassembling the donor Ub mix. The donor Ub mixture (5 μl) contained 50 mM Tris HCl (pH 7.4), 5 mM MgCl2, 2 mM ATP, 0.5 mM DTT, 0.1 mg/mL BSA, 1 μM Ub-NC-I555, 0.1 μM E1, and 2 μM Cdc34b. The reaction was incubated for 5 min at 37° C. Compounds, in the amounts indicated, were added followed by the addition of ROC1-CUL1 (or related E3 subcomplex) in amounts as indicated and 10 μM PK-Ub (1-74) (as a receptor). The final volume was adjusted to 10 μl. The reaction was incubated for 10 min at 37° C.
For the experiments shown in FIG. 8C and FIG. 9, the reaction was assembled in a 10-μl mixture containing 50 mM Tris HCl (pH 7.4), 5 mM MgCl2, 0.5 mM DTT, 0.1 mg/mL BSA, 0.05 μM Ub-NC-I555, 2,5 μM PK-Ub (1-74), 0.1 μM E1, 1 μM Cdc34b, and 80 nM ROC1-CUL1 with or without compound. The reaction was initiated by the addition of 2 mM ATP. The products were separated by 4-20% SDS/PAGE and were visualized and quantified on a Typhoon FLA 9500 laser scanner (GE).

T1 sequence (Q13616 411-776): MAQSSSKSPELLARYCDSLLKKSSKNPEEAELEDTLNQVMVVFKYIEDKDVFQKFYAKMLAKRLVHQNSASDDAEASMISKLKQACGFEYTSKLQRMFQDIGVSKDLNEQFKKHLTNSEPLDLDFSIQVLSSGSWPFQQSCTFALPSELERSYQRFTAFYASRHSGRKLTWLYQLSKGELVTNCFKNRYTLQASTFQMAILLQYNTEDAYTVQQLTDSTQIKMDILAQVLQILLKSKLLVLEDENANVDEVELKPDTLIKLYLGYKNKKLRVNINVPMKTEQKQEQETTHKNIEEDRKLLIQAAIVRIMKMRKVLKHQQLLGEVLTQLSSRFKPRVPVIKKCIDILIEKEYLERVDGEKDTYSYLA
T1 sequence (P62877 whole entry partner): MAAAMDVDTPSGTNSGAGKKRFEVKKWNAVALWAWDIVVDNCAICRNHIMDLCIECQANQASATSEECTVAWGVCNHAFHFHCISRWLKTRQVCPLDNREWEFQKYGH
Sequence of ROC1-CUL1 (Q13616 whole entry): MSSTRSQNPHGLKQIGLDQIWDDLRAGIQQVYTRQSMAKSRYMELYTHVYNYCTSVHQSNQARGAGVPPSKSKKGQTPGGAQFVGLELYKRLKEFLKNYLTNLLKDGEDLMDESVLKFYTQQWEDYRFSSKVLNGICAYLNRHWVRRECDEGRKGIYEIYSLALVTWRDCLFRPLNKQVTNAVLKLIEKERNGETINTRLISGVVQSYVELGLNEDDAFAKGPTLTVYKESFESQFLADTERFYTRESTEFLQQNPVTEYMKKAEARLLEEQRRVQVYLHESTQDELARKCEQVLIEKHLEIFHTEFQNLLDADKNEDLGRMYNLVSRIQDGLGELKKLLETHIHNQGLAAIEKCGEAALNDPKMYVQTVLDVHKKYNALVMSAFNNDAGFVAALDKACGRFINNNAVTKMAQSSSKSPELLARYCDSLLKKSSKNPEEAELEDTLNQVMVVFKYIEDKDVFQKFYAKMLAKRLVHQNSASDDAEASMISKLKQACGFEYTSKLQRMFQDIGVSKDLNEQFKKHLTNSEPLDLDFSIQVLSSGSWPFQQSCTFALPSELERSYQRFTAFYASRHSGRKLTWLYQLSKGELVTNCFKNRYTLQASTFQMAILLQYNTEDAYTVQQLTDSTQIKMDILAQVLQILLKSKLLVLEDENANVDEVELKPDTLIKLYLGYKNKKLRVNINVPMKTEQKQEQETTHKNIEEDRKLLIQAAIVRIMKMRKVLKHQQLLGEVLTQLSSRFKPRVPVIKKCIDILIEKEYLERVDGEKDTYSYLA
Sequence of ROC1-CUL1 (P62877 whole entry partner): as the sequence (P62877 whole entry partner) above
Sequence of E3 CRL4^CRBN (Q13619 whole entry): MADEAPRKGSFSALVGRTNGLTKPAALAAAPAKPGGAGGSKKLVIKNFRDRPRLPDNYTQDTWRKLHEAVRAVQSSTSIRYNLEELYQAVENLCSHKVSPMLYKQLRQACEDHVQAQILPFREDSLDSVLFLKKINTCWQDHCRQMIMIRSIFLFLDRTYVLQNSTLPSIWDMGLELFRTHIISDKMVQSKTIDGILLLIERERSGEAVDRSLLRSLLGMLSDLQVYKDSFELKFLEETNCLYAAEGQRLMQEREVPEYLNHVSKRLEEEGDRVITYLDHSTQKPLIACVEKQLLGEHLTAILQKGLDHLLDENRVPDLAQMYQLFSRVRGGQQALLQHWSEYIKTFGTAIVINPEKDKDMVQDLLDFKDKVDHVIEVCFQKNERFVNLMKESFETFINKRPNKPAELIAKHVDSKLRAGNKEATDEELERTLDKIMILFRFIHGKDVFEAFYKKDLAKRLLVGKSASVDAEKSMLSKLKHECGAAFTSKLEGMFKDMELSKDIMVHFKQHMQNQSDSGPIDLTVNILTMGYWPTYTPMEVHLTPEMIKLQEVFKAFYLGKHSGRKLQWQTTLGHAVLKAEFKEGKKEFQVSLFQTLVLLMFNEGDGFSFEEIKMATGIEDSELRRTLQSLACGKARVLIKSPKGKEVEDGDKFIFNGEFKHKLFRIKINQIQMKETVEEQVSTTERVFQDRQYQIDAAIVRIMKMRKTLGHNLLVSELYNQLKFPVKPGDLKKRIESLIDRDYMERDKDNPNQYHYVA
Sequence of E3 CRL4^CRBN (P62877 whole entry partner): as the sequence (P62877 whole entry partner) above
Sequence of E3 CRL4^CRBN (Q16531 whole entry partner): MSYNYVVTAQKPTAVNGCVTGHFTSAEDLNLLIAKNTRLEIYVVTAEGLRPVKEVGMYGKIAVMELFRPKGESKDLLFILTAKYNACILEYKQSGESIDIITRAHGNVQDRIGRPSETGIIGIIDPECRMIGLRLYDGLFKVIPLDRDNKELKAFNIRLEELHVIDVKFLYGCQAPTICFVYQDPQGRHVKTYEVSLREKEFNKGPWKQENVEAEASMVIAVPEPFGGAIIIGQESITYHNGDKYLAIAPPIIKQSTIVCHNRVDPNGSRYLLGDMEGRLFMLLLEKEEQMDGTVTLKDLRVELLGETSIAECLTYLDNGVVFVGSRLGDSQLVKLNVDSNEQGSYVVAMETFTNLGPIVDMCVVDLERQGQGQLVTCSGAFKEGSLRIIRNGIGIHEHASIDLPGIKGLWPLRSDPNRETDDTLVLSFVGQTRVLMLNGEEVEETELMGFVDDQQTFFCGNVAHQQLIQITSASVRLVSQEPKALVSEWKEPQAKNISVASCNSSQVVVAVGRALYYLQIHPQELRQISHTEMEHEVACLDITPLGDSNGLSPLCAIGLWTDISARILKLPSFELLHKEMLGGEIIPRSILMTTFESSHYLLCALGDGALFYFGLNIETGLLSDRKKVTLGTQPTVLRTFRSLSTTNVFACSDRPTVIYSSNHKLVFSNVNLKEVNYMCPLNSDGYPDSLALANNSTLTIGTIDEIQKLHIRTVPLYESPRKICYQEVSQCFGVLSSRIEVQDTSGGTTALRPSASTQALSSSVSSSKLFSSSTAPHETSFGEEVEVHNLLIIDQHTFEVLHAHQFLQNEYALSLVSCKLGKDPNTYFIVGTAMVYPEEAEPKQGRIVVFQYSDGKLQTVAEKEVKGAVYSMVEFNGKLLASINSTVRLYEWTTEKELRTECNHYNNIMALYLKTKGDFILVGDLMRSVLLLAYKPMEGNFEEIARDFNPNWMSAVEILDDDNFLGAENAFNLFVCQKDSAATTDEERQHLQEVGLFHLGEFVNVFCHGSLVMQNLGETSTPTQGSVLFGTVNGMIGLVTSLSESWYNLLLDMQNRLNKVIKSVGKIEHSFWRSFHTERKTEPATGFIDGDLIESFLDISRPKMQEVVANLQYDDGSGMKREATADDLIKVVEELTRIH
Sequence of E3 CRL4^CRBN (Q96SW2 whole entry partner): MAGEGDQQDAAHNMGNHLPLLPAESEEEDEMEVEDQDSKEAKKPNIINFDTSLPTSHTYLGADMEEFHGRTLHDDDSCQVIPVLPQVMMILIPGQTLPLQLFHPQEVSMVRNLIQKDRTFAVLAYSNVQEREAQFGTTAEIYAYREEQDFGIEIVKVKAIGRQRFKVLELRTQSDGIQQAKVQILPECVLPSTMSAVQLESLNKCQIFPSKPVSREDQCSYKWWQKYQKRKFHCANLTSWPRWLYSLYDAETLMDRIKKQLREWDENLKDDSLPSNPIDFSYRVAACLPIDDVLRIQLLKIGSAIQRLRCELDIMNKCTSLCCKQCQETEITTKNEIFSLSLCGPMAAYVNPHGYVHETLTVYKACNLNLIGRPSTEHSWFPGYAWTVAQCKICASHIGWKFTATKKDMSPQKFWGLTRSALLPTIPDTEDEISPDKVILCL

As a reminder, the inhibition is the percentage by which the read-out fell short of the control. On to `Cc1ccc(C(=O)Nc2ccc(S(=O)(=O)O)c3cc(S(=O)(=O)O)cc(S(=O)(=O)O)c23)cc1NC(=O)c1cccc(NC(=O)Nc2cccc(C(=O)Nc3cc(C(=O)Nc4ccc(S(=O)(=O)O)c5cc(S(=O)(=O)O)cc(S(=O)(=O)O)c45)ccc3C)c2)c1` [Suramin, suramin], for which the inhibition at 0.8 µM at ROC1-CUL1 CTD [1] (0.8 μM) was 50%. Further, at ROC1-CUL1 CTD [1] (5 μM), the inhibition at 5 µM came to 100%.

The term Kd denotes the equilibrium constant for the complex coming apart. As for `O=c1c(Oc2ccccc2)c(C(F)(F)F)oc2c(O)c(O)ccc12` [#33, 7,8-dihydroxy-3-phenoxy-2-(trifluoromethyl)-4H-chromen-4-one], the Kd at ROC1-CUL1 CTD [2] worked out at 1840 nM. Also, the “inhibition of ubiquitination of CK1α” value at E3 CRL4^CRBN is listed as “Significant inhibitory effects”. Moreover, the “discharge of Cdc34-Ub and production of Ub2 by ROC1-CUL1” value on ROC1-CUL1 is “showed inhibition”.
